Experimental data reported in publication PMC12165799, “Antimicrobial peptide developed with machine learning sequence optimization targets drug resistant Staphylococcus aureus in mice” (The Journal of Clinical Investigation, 2025).

Assays:
[1] = system: VRSA (S. aureus VRS1) biofilm; experiment: Biofilm viability assay on solid support (VRS1); assay type: cell-based, Staphylococcus aureus; conditions: 40 μg/mL, 24 h established biofilm
[2] = system: S. aureus VRS1 (VRSA) exponential and persister cells; experiment: S. aureus persister cell and time-kill assays (VRS1); assay type: cell-based, Staphylococcus aureus; conditions: approximately 1 × 10^7 CFU
Method: 305 Minimal inhibitory concentration (MIC) assay
We made serial dilutions of 10×
We determined the MIC using OD600
Accordingly, we added 150 mM NaCl,
319 established protocol (5).
323 aureus VRS1) in PBS. To assess the killing kinetics of CIT-8 in persister cells, we added 1 ml of
324 cell suspension to the wells of a 2-ml deep-well assay block (Cat no. 3960, Corning, NY, USA)
We also included ciprofloxacin (at 10 μg/ml) for S.
326 aureus MW2 and linezolid (100 μg/ml) for S. aureus VRS1 as antibiotic controls. Additionally,
327 we included bithionol (at 10 μg/ml) as a positive control, known for its ability to kill stationary
328 phase persister cells (6). We incubated the plates at 37°C, with shaking at 225 rpm. At specific
329 times (0, 15, 30, 60, and 120 min), we collected 10 μl samples, diluted them serially, and then
330 plated them on tryptic soy agar (TSA) (BD Difco, NJ, USA) plates. We incubated the TSA plates
331 for 18 hours at 37°C for colony counting. We performed these experiments in duplicate. As a
332 comparison, we prepared the exponential cells of S. aureus MW2 and VRS1 in PBS and analyzed
333 their killing kinetics in the same manner as described for persister cells.

[3] = system: S. aureus MW2 biofilm formation; conditions: crystal violet, 24 h
Method: 349 Prevention of S. aureus MW2 biofilm formation
350 We evaluated the ability of the citropin 1.1-derived peptides to inhibit biofilm formation
351 following an established protocol with modifications (5). In short, we prepared exponential
352 cultures of S. aureus MW2 (adjusted to OD600 = 0.01) in TSB medium (supplemented with 0.2%
353 glucose) from overnight cultures. We added 90 µl of the bacterial culture to 10 µl of serially diluted
354 10× peptide solution in flat-bottomed 96-well polystyrene microtiter plates (Cat no. Corning 3595,
(§1) We used TSB medium containing
(§2) 356 bacteria with water as the positive control, while TSB media with sterile water served as the
(§3) 357 negative control. After incubation, we carefully removed the TSB medium and washed the wells
(§4) 358 with PBS (Gibco, MD, USA) to remove loosely attached planktonic cells. We quantified the
(§5) 359 biomass by staining the biofilms with crystal violet following an established protocol and
(§6) 360 quantitated the concentration of peptide that inhibits 50% of biofilm formation (MBIC50)(8). We
(§7) 361 measured the live cell count of the biofilms using XTT dye [2,3-bis(2-methyloxy-4-nitro-5-
362 sulfophenyl)-2H-tertazolium-5-carboxanilide] (ATCC, VA, USA).

[4] = system: S. aureus MW2 membrane; experiment: Propidium iodide-based membrane permeability; assay type: cell-based, Staphylococcus aureus; conditions: S. aureus MW2, 60 minutes
Method: 484 min at room temperature in the dark based on a previously established protocol (8). We added 90
485 µl of the dye/bacteria mixture to 10 μl of serially diluted 10× peptide concentration in black, 96-
486 well plates (Cat. no. 3904, Corning, NY, USA) and incubated the plates for 1 hour at room
487 temperature. We measured the fluorescence with excitation and emission wavelengths of 485 nm
488 and 525 nm, respectively in endpoint assay mode using a SpectraMax i3x (Molecular Devices,
489 CA, USA) fluorescence reader.
490 Propidium iodide-based membrane permeability
491 We used a propidium iodide (Thermo Fisher Scientific, MA, USA) fluorescence-based
492 bacterial permeation assay to establish membrane-oriented interactions with the designed peptides
493 based on a previously established protocol (8). We prepared exponential phase S. aureus MW2
494 bacteria and diluted to OD600 = 0.4 in PBS. We added PI dye (final concentration = 2 µM) to the
495 bacteria in 1:10 serial dilutions in black, 96-well plates (Cat. no. 3904, Corning, NY, USA) and
496 incubated the plates for 1 hour at room temperature. We then measured the fluorescence with an
497 excitation wavelength of 584 nm and an emission wavelength of 620 nm in endpoint assay mode
498 using a SpectraMax i3x (Molecular Devices, CA, USA) fluorescence reader.
501 To determine the ATP leakage potential of the peptides, we employed a luciferase-based
502 assay(18). In brief, we washed exponential phase of S. aureus MW2 bacteria three times with PBS
503 (pH 7.4) and adjusted the washed cells to OD600 = 0.4 in PBS. Following treatment of the bacteria
504 with 32 µg/ml of CIT-8 peptide at 37°C for 30 min, we centrifuged the cells at 14,000× g for 5
505 min. We transferred 50 µl of each supernatant fraction to black, clear-bottom, 96-well plates

[5] = system: S. aureus MW2 24 h established biofilm; conditions: crystal violet, 24 h established biofilm, 24 h treatment
Method: 346 plated onto TSA plates, and incubated plates at 37°C overnight. The next day, we counted the
347 viable bacterial colonies.
as §1, §2, §3, §4, §5, §6, §7
362 sulfophenyl)-2H-tertazolium-5-carboxanilide] (ATCC, VA, USA). We calculated the percentage
363 of biofilm growth by normalizing to biofilm growth in wells containing bacteria without peptide
366 Disruption of S. aureus MW2 established biofilms
367 We evaluated the ability of the citropin 1.1-derived peptides to disrupt established biofilms
368 following an established protocol with modifications (5). We prepared exponential cultures of S.
369 aureus MW2 (adjusted to 1 × 10^6 CFU/ml) in TSB medium (supplemented with 0.2% glucose)
370 from overnight grown cultures. We added 100 µl of bacterial culture to flat-bottomed 96-well
371 polystyrene microtiter plates (Cat no. 3595, Corning, NY, USA). We then incubated the plates at
372 37°C for 24 hours in static conditions to allow biofilm formation. After incubation, we carefully
373 pipetted out the TSB medium and washed the wells with PBS (Gibco, MD, USA) to remove
374 loosely attached planktonic cells. We treated the established biofilms in each well with 10 µl of
375 serially diluted 10× peptide solution, followed by the addition of 90 μl TSB medium
376 (supplemented with 0.2% glucose). We incubated the plates for another 24 h at 37°C before
377 processing biomass and live-cell contents. We calculated the concentration of peptide that disrupts
378 50% of established biofilms (MBEC50).

[6] = system: MRSA (S. aureus MW2) biofilm; experiment: Biofilm viability assay on solid support (MW2); assay type: cell-based, Staphylococcus aureus; conditions: 40 μg/mL, 24 h established biofilm
[7] = system: S. aureus JE2; design: method as in PMID 31336137; conditions: S. aureus JE2 (USA300 isolate); cited from earlier work
Text: In MRSA, antimicrobial resistance is linked to life-threatening infections, such as pneumonia, sepsis, and endocarditis ([48]). The situation is further complicated by the presence of S. aureus bacteria in alternative physiological states such as biofilms and persister cells, which are often neglected in early antimicrobial drug discovery stages even though they contribute substantially to chronic, relapsing infections ([49]).

Row | Molecule | Reduction of VRSA biofilm burden on solid membrane [1] | Time to elimination of exponential and persister cells of VRSA [2] | MBIC50 (biomass reduced by 50%) [3] | Propidium iodide fluorescence (membrane permeation) [4] | MBEC50 (50% of biomass disrupted) [5] | Reduction of MRSA biofilm burden on solid membrane [6] | MIC [7]
1 | CC[C@H](C)[C@H](NC(=O)CN)C(=O)NCC(=O)N[C@@H](C)C(=O)N[C@H](C(=O)N[C@@H](CC(C)C)C(=O)N[C@@H](CCCCN)C(=O)N[C@H](C(=O)N[C@@H](CC(C)C)C(=O)N[C@H](C(=O)N[C@H](C(=O)NCC(=O)N[C@@H](CC(C)C)C(=O)N1CCC[C@H]1C(=O)N[C@@H](C)C(=O)N[C@@H](CC(C)C)C(=O)N[C@H](C(=O)N[C@@H](CO)C(=O)N[C@@H](Cc1c[nH]c2ccccc12)C(=O)N[C@H](C(=O)N[C@@H](CCCCN)C(=O)N[C@@H](CCCNC(=N)N)C(=O)N[C@@H](CCCCN)C(=O)N[C@@H](CCCNC(=N)N)C(=O)N[C@@H](CCC(N)=O)C(=O)N[C@@H](CCC(N)=O)C(N)=O)[C@@H](C)CC)[C@@H](C)CC)[C@@H](C)O)[C@@H](C)O)C(C)C)C(C)C [melittin, reference compound] | 3.9 logs | ≤ 120 min | 4.8 µg/mL | elevated fluorescence levels | 2.3 µg/mL | 1.85 logs | 
2 | citropin 1.1 |  |  |  |  |  |  | 32 mg/L
